Laboratory results reported in patent US20080113956A1, “Substituted Porphyrins” (priority 1997, published 2008).

Assays:
[1] = SOD activity in U/mg (reduction of cytochrome c or photoreduction of NBT); assay type: biochemical; conditions: unit = amount that inhibits one half the reduction of cytochrome c or photoreduction of NBT
[2] = Electrochemistry: metal-centered redox potential; assay type: physicochemical; conditions: metal centered, vs NHE, pH 7.8 if not otherwise specified
Description: Electrochemistry. The electrochemical characterization was performed as described previously on a Voltammetric Analyzer Model 600 (CH instrument) using a glassy carbon electrode (Ag/AgCl reference and Pt auxiliary electrodes), at 0.5 mM porphyrin, pH 7.8 (0.05 M phosphate buffer), 0.1 M NaCl. The potentials were standardized against potassium ferricyanide/potassium ferrocyanide couple (Batinic-Haberle et al, Arch. Biochem. Biophys. 343:225 (1997); Kolthof et al, J. Phys. Chem. 39:945 (1974)).
Electrochemistry. The metal-centered redox behavior of all metalloporphyrin products was reversible. The half-wave potentials (E^O1/2) were calculated as the average of the cathodic and anodic peaks and are given in mV vs NHE (Table 5). The average shift per chlorine is +55 mV (Table 5), which is in agreement with the values previously reported for H2TPP derivatives (between −50 and +70 mV) (Sen et al, Chem. Soc. Faraday Trans. 93:4281 (1997); Autret et al. J. Chem. Soc. Dalton Trans. 2793 (1996); Hariprasad et al, J. Chem. Soc. Dalton Trans. 3429 (1996); Tagliatesta et al, Inorg. Chem. 35:5570 (1996); Ghosh, J. Am. Chem. Soc. 117:4691 (1995); Takeuchi et al, J. Am. Chem. Soc. 116:9730 (1994); Binstead et al, Inorg. Chem. 30:1259 (1991); Giraudeau et al, J. Am. Chem. Soc. 101:3857 (1979)). This shift appears to be higher (˜+65 mV) between 0 and 1, and between 2 and 3 chlorines (Table 5). […] The manganese redox state of MnCl4TE-2-PyP^5 (E^O1/2=+448 mV) and MnOBTMPyP^4+ (E^O1.2=+480 mV) is 3+ and 2+, respectively. This difference may be explained by their difference in terms of redox potential (˜30 mV) but also by structural considerations, for instance an increased distortion of the porphyrin ring in the case of MnOBTMPyP^4+. (Batinic-Haberle et al, Arch. Biochem. Biophys. 343:225 (1997); Ochsenbein et al, Angew. Chem. Int. Ed. Engl. 33:348 (1994)).

[3] = test system: rat brain homogenates; test: Iron/ascorbate mediated lipid peroxidation of rat brain homogenates (TBARS); assay type: biochemical; conditions: for IC50: rat brain homogenate, 30 minutes incubation with iron and ascorbate, TBARS
Description: Frozen adult Sprague-Dawley rat brains (Pel-Freez, Rogers, Ark.) were homogenized with a polytron (Turrax T25, Germany) in 5 volumes of ice cold 50 mM potassium phosphate at pH 7.4. Homogenate protein concentration was determined with the Coomassie Plus protein assay (Pierce, Rockford, Ill.) using bovine serum albumin as a standard. The homogenate volume was adjusted with buffer to give a final protein concentration of 10 mg/ml and frozen as aliquots at […].
Rat brain homogenates (2 mg protein) were incubated with varying concentrations of antioxidant at 37° C. for 15 minutes. Oxidation of the rat brain homogenate was initiated by the addition of 0.1 ml of a freshly prepared anaerobic stock solution containing iron(II) chloride (0.25 mM) and ascorbate (1 mM) as previously reported (Braughler et al, J. Biol. Chem. 262:10438 (1987)). Samples (final volume 1 ml) were placed in a shaking water bath at 37° C. for 30 minutes. The reactions were stopped by the addition of 0.1 ml of a stock butylated hydroxytoluene (60 mM) solution in ethanol.
The concentration of thiobarbituric acid reactive species (TBARS) in rat brain homogenates was used as a index of lipid peroxidation (Bernhem et al, J. Biol. Chem. 174:257 (1948); Witz et al, J. Free Rad. Biol. Med. 2:33 (1986); Kikugawa et al, Anal. Biochem. 202:249 (1992); Jentzsch et al, Free Rad. Biol. Med. 20P251 (1996)). Malondialdehyde standards were obtained by adding 8.2 μl of 1,1,3,3-tetramethoxypropane in 10 ml of 0.01 M HCl and mixing for 10 minutes at room temperature. This stock was further diluted in water to give standards that ranged from 0.25 to 25 μM. Samples or standards (200 μl) were acidified with 200 μl of 0.2 M phosphoric acid in 1.5 ml locking microfuge tubes. The color reaction was initiated by the addition of 25 μl of a 0.11M thiobarbituric acid solution and samples were placed in a 90° C. heating block for 45 minutes. TBARS were extracted with 0.5 ml of n-butanol by vortexing samples for 3 minute and chilling on ice for 1 minute. The samples were then centrifuged at 12,000×g for 3 minutes, 150 μl aliquots of the n-butanol phase were placed in each well of a 96-well plate and read at 535 nm in a Thermomax platereader (Molecular Devices, Sunnyvale, Calif.) at 25° C. Sample absorbencies were converted to MDA equivalencies (μM) by extrapolation from the MDA standard curve. None of the antioxidants at concentrations employed in these studies affected the reaction of MDA standards with thiobarbituric acid and reactions without TBA were used as subtraction blanks.
Data were presented as their means ±SE. The inhibitory concentration of antioxidants that decreased the degree of lipid peroxidation by 50% (IC50) and respective 95% confidence intervals (CI) were determined by fitting a sigmoidal curve with variable slope to the data (GraphPad Prizm, San Diego, Calif.).

[4] = cited from earlier work; for kcat of comparison compounds: literature comparators
[5] = vs NHE; literature comparators; cited from earlier work

| IC50 [3] | Molecule | SOD [1] | Redox Potential (E1/2) [2] | kcat of comparison compounds [4] | E°1/2 half-wave potential of comparison compounds [5] | kcat per active site ([4]; per active site) | inhibition of iron/ascorbate-initiated lipid peroxidation ([3]; up to concentrations of 1 mg/ml) |
| --- | --- | --- | --- | --- | --- | --- | --- |
| 1.3 µM | C[n+]1ccc(-c2c3nc(c(-c4cc[n+](C)cc4)c4[n-]c(c(Br)c4Br)c(-c4cc[n+](C)cc4)c4nc(c(-c5cc[n+](C)cc5)c5[n-]c2c(Br)c5Br)C(Br)=C4Br)C(Br)=C3Br)cc1.[Mn+3] [MnOBTM-4-PyP, Manganese β-octabromo-meso-tetrakis-(N-methylpyridinium-4-yl)porphyrin] | 18,460 U/mg | +0.48 V | 22 10^7 M^−1 s^−1 | +480 mV |  |  |
| 204 µM | Cc1c(C)c2c(c(C)c1O)CCC(C)(C(=O)O)O2 (centres unmarked) [Trolox] |  |  |  |  |  |  |
| 241 µM | C[n+]1ccc(-c2c3nc(c(-c4cc[n+](C)cc4)c4ccc([nH]4)c(-c4cc[n+](C)cc4)c4nc(c(-c5cc[n+](C)cc5)c5ccc2[nH]5)C=C4)C=C3)cc1.[Zn+2] [ZnTM-4-PyP] | trace |  |  |  |  |  |
| 15 µM | CuZnSOD: dimeric copper- and zinc-containing superoxide dismutase enzyme; bovine in Example VIII | 5,100 U/mg | +0.35 V | 200 10^7 M^−1 s^−1 | +260 mV | 10^9 M^−1s^−1 |  |
|  | catalase: enzymatic antioxidant (protein, UniProt P04040 2-527, looked up) Catalase: ADSRDPASDQMQHWKEQRAAQKADVLTTGAGNPVGDKLNVITVGPRGPLLVQDVVFTDEMAHFDRERIPERVVHAKGAGAFGYFEVTHDITKYSKAKVFEHIGKKTPIAVRFSTVAGESGSADTVRDPRGFAVKFYTEDGNWDLVGNNTPIFFIRDPILFPSFIHSQKRNPQTHLKDPDMVWDFWSLRPESLHQVSFLFSDRGIPDGHRHMNGYGSHTFKLVNANGEAVYCKFHYKTDQGIKNLSVEDAARLSQEDPDYGIRDLFNAIATGKYPSWTFYIQVMTFNQAETFPFNPFDLTKVWPHKDYPLIPVGKLVLNRNPVNYFAEVEQIAFDPSNMPPGIEASPDKMLQGRLFAYPDTHRHRLGPNYLHIPVNCPYRARVANYQRDGPMCMQDNQGGAPNYYPNSFGAPEQQPSALEHSIQYSGEVRRFNTANDDNVTQVRAFYVNVLNEEQRKRLCENIAGHLKDAQIFIQKKAVKNFTEVHPDYGSHIQALLDKYNAEKPKNAIHTFVQSGSHLAAREKANL |  |  |  |  |  | did not inhibit |

| Molecule | IC50 [3] | SOD [1] | Redox Potential (E1/2) [2] | kcat of comparison compounds [4] | E°1/2 half-wave potential of comparison compounds [5] | kcat per active site ([4]; per active site) | inhibition of iron/ascorbate-initiated lipid peroxidation ([3]; up to concentrations of 1 mg/ml) |
| --- | --- | --- | --- | --- | --- | --- | --- |
| O=C(O)c1ccc(-c2c3nc(c(-c4ccc(C(=O)O)cc4)c4ccc([nH]4)c(-c4ccc(C(=O)O)cc4)c4nc(c(-c5ccc(C(=O)O)cc5)c5ccc2[nH]5)C=C4)C=C3)cc1.[Fe+3] [FeTBAP, Ferric 5,10,15,20-tetrakis(4-benzoic acid) porphyrin] | 212 µM | 24 U/mg | +0.01 V |  |  |  |  |
| C[n+]1ccccc1-c1c2nc(c(-c3cccc[n+]3C)c3ccc([nH]3)c(-c3cccc[n+]3C)c3nc(c(-c4cccc[n+]4C)c4ccc1[nH]4)C=C3)C=C2.[Zn+2] [ZnTM-2-PyP] | 591 µM | trace |  |  |  |  |  |
| MnTBAP | 29 µM | 179 U/mg | −0.19 V |  |  |  |  |
